IC50 data for 30 compounds are collected here from EP4291552B1, “MODULATORS OF COMPLEX I” (Boehringer Ingelheim International GmbH, priority 2021, dated 2022).

Usually IC50 stands for the concentration needed to halve the response being measured.

The subject of this assay is mice neuroblastoma cells (HT-22). As to the kind of experiment: Determination of Cellular Protection (HT22). The conditions noted are these: Mus musculus, HT-22, 16 h, read-out: HT22 IC50.
With `O=C1/C(=C2/COCCN2)c2cc(NCC3CCOCC3)ccc2N1C1CCOCC1` [Compound 81], the IC50 turned out to be 233 nM.

As for `CC(Nc1ccc2c(c1)/C(=C1\COCCN1)C(=O)N2C(C)C)c1cccnc1` (stereo not drawn) [Compound 15], the IC50 came to 115 nM.

For `CC1COC/C(=C2/C(=O)N(C3CCOCC3)c3ccc(N4C(C)CCC4C)cc32)N1` (stereo not drawn) [Compound 93], the IC50 stood at 101 nM.

As for `O=C1/C(=C2/CCN(C3COC3)CCN2)c2cc(N3CCCC3)ccc2N1C1CCOCC1` [Compound 121], the IC50 was 192 nM.

On to `O=C1/C(=C2/COCCN2)c2cc(NC3CCOCC3F)ccc2N1C1CCOCC1` (stereo not drawn) [Compound 80], for which the 50% inhibitory concentration (IC50) is 345 nM.

On to `CC(C)N1C(=O)/C(=C2/COCCN2)c2cc(NCc3cc[nH]n3)ccc21` [Compound 74], for which the IC50 was 144 nM.

In the case of `CC(C)N1CCC2(CC1)CN/C(=C1\C(=O)N(C(C)C)c3ccc(N4C(C)CCC4C)cc31)CO2` (stereo not drawn) [Compound 139], the 50% inhibitory concentration (IC50) was found to be 18 nM.

For the compound `O=C1/C(=C2/COCCN2)c2cc(NC3CCOCC3)ccc2N1C1CCOC1` (stereo not drawn) [Compound 32], the IC50 worked out at 205 nM.

`CC(=O)N1CC[C@H](N2C(=O)/C(=C3/COCCN3)c3cc(NC(C)C)ccc32)C1` [Compound 170]: the IC50 is 159 nM.

As to `CN1CCC/C1=C1/C(=O)N(C2CCOCC2)c2ccc(NC3CCOC3)cc21` (stereo not drawn) [Compound 49], the IC50 was determined as 1250 nM.

Take `CC(C)Nc1ccc2c(c1)/C(=C1\CCN(C(C)C)CCN1)C(=O)N2C1CCOCC1` [Compound 164]: the IC50 was 30 nM.

As for `O=C1/C(=C2/COCCN2)c2cc(NC3COC3)ccc2N1C1CCOCC1` [Compound 175], the IC50 amounted to 1190 nM.

On to `CC(C)C(C)Nc1ccc2c(c1)/C(=C1\COCCN1)C(=O)N2C1COC1` (stereo not drawn) [Compound 66], for which the IC50 was found to be 19 nM.

Turning to `CC(=O)N1CCC(Nc2ccc3c(c2)/C(=C2\COCCN2)C(=O)N3C(C)C)CC1` [Compound 172], the IC50 is 279 nM.

`CN1C(=O)/C(=C2/CCN(C(=O)OCc3ccccc3)CCN2)c2cc(N3CCCC3)ccc21` [Compound 152]: the IC50 amounted to 47 nM.

Turning to `CC(Nc1ccc2c(c1)/C(=C1\COCCN1)C(=O)N2C(C)C)c1nccs1` (stereo not drawn) [Compound 144], the IC50 amounted to 85 nM.

On to `COCC(C)N1C(=O)/C(=C2/COCCN2)c2cc(NC(C)C)ccc21` (stereo not drawn) [Compound 28], for which the IC50 came out at 118 nM.

As to `CC(C)Nc1ccc2c(c1)/C(=C1\CCOCCN1)C(=O)N2C(C)C` [Compound 82], the IC50 is 26 nM.

With `CC1CCC(C)N1c1ccc2c(c1)/C(=C1\COCCN1)C(=O)N2C1CCOCC1` (stereo not drawn) [Compound 156], the IC50 was 71 nM.

Consider `CCC(CC)Nc1ccc2c(c1)/C(=C1\COCCN1)C(=O)N2C(C)C` [Compound 171], for which the IC50 worked out at 23 nM.

As to `O=C1/C(=C2/COCCN2)c2cc(NC3CCCC3)ccc2N1C1COC1` [Compound 65], the IC50 worked out at 18 nM.

`CC(C)Nc1ccc2c(c1)/C(=C1\COCCN1)C(=O)N2C` [Compound 63]: the IC50 came out at 134 nM.

As for `CC(Nc1ccc2c(c1)/C(=C1\COCCN1)C(=O)N2C(C)C)c1ccncc1` (stereo not drawn) [Compound 143], the IC50 worked out at 110 nM.

With `O=C1/C(=C2/COCCN2)c2cc(NC3CCOCC3)ccc2N1C1CCOCC1` [Compound 18], the half-inhibitory concentration (IC50) was found to be 409 nM.

As to `CC(=O)N1CCC2(CC1)CN/C(=C1\C(=O)N(C(C)C)c3ccc(N4CCCC4)cc31)CO2` [Compound 53], the IC50 is 55 nM.

As for `CN(C)c1ccc2c(c1)/C(=C1\CCCN1)C(=O)N2C1CCOCC1` [Compound 42], the IC50 was 951 nM.

On to `CC(C)N1C(=O)/C(=C2/COCCN2)c2cc(NC3CCOCC3)ccc21` [Compound 36], for which the IC50 is 56 nM.

Regarding `CC(Nc1ccc2c(c1)/C(=C1\COCCN1)C(=O)N2C(C)C)c1cnccn1` (stereo not drawn) [Compound 57], the IC50 amounted to 199 nM.

As for `CC(C)N1C(=O)/C(=C2/COCCN2)c2cc(NC(C)C(C)(C)C)ccc21` (stereo not drawn) [Compound 55], the IC50 turned out to be 38 nM.

For the compound `CC(C)N1CCC(N2C(=O)/C(=C3/COCCN3)c3cc(N(C(C)C)C(C)C)ccc32)CC1` [Compound 122], the IC50 worked out at 944 nM.
